In this assay the target is human opioid receptor-like receptor (ORL-1) (Homo sapiens (Human), UniProt P41146). In words: ORL-1 receptor radioligand binding assay ([3H]-nociceptin). The following applies: binding affinity, bound given in μM, read-out: Ki ORL-1. The procedure: ORL-1 Receptor Binding Assay Procedure: Membranes from recombinant HEK-293 cells expressing the human opioid receptor-like receptor (ORL-1) (Perkin Elmer, Shelton, Conn.) was prepared by lysing cells in ice-cold hypotonic buffer (2.5 mM MgCl2, 50 mM HEPES, pH 7.4) (10 ml/10 cm dish) followed by homogenization with a tissue grinder/Teflon pestle. Membranes were collected by centrifugation at 30,000×g for 15 min at 4° C. and pellets resuspended in hypotonic buffer to a final concentration of 1-3 mg/ml. Protein concentrations were determined using the BioRad protein assay reagent with bovine serum albumen as standard. Aliquots of the ORL-1 receptor membranes were stored at −80° C.
Radioligand binding assays (screening and dose-displacement) use 0.1 nM [^3H]-nociceptin (Perkin Elmer, Shelton, Conn.; 87.7 Ci/mmole) with 12 μg membrane protein in a final volume of 500 μl binding buffer (10 mM MgCl2, 1 mM EDTA, 5% DMSO, 50 mM HEPES, pH 7.4). Non-specific binding was determined in the presence of […] unlabeled nociceptin (American Peptide Company). […] Fifty μl/well scintillation cocktail (Perkin Elmer, Shelton, Conn.) was added and plates are counted in a Packard Top-Count for 1 min/well. The data from screening and dose-displacement experiments were analyzed using Microsoft Excel and the curve fitting functions in GraphPad PRISM™, v. […]

Usually Ki stands for the equilibrium dissociation constant of an inhibitor or competing ligand from its target.

Turning to `NC(=O)[C@@H]1C[C@]23CCN(CC4CC4)[C@H](Cc4ccc(O)cc42)[C@]3(O)C1` [Compound 31, (2R,3aS,4R,9bS)-12-(cyclopropylmethyl)-3a,8-dihydroxy-1,2,3,3a,4,5-hexahydro-4,9b-(epiminoethano)cyclopenta-[a]naphthalene-2-carboxamide], the Ki is more than 20 µM.
